What all share (type): cell-based
One series deals with T1, CXCR2 (Homo sapiens, UniProt P25025).
T1 construct: expressed in transfected cells; host or cells: HEK293 cells stably expressing Gα16 and CXCR2
T1 sequence (P25025 1-360): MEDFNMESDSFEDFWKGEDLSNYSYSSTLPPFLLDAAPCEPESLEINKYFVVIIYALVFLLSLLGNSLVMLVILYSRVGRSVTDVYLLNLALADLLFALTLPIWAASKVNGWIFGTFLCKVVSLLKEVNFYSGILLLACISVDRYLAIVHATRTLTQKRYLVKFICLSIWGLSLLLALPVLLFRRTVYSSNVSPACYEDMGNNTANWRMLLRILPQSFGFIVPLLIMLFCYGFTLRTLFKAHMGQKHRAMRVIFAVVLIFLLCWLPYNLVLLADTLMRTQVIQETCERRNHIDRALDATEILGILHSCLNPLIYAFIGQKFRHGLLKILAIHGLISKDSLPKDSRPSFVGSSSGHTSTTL
The series is described as follows: CXCR2 antagonistic activity assay (IL-8-induced intracellular calcium change, Fluo-4 AM, HEK293 cells stably expressing Gα16 and CXCR2). The conditions noted are these: for CXCR2 antagonistic activity (in words): HEK293 cells expressing Gα16 and CXCR2. On the procedure:
Human embryonic kidney 293 (HEK293) cells stably expressing Gα16 and CXCR2 were seeded onto 96-well plates and incubated for 24 h. Cells were loaded with 2 µmol l^−1 Fluo-4 AM in Hank's balanced salt solution (HBSS, containing KCl 5.4 mmol l^−1, Na2HPO4 0.3 mmol l^−1, KH2PO4 0.4 mmol l^−1, NaHCO3 4.2 mmol l^−1, CaCl2 1.3 mmol l^−1, MgCl2 0.5 mmol l^−1, Mg2SO4 0.6 mmol l^−1, NaCl 137 mmol l^−1, BSA 5 g l^−1, glucose 5.6 mmol l^−1 and sulfinpyrazone 250 µmol l^−1, pH 7.4) at 37°C for 45 min. The excess dye was removed and 50 µl of HBSS containing test compounds was added. After incubation at room temperature for 10 min, 25 µl of HBSS containing IL-8 was dispensed into the well using a FlexStation II microplate reader (Molecular Devices, Sunnyvale, CA, USA), and intracellular calcium change was recorded with an excitation wavelength of 485 nm and an emission wavelength of 525 nm. The half maximal inhibitory concentrations (IC50) of compounds were determined with the […] PRISM software by constructing their dose–response curves.
On the technique in general: A change in cytosolic calcium serves as a functional read-out for many receptors and channels.

In series [1] the test system is NCI-H1299 cells. The series is described as follows: Anti-proliferation assay (MTT). The following applies: NCI-H1299, 0.1, 1, 10 and 100 µg ml^−1, 72 h. As to the method: NCI-H1299 cells (provided by Tumor Pharmacology and Endocrine Laboratory, College of Pharmaceutical Sciences, Zhe Jiang University) were seeded in 96-well plates at a density of 4000 cells well^−1. After 24 h of adherence, cells were incubated with medium alone or medium containing test compounds for 72 h. Four different concentrations (100, 10, 1 and 0.1 µg ml^−1) of both antagonists were used. Cell proliferation was determined by the thiazolyl blue tetrazolium bromide (MTT) assay. Growth inhibition was calculated as % = [1 − (A/B)] × 100, where A and B were the absorbance of treated and untreated cells, respectively.
The highly metastatic NCI-H1299 lung cancer cell line was selected for the following in vitro biological evaluation.

In series [2] the test system is NCI-H1299 cells. Description: Wound healing assay (cell migration). The conditions noted are these: Homo sapiens; NCI-H1299, 50 µg ml^−1, 48 h treatment; read-out: cell migration inhibitory rate. As to the method: NCI-H1299 cells (5 × 10^5 cell well^−1) were seeded in a six-well tissue culture plate and grown to 90% confluence. After the medium was removed, a gap with constant width was created in the centre of the cell well by scratching the monolayer with a sterile yellow micropipette tip. […] The wound closure was monitored and photographed at 0, 12, 24, 36 and 48 h with the IMAGEPRO software. The cell migration inhibitory rate was calculated as % = [1 − (0 h wound area − 12, 24, 36 or 48 h wound area)/0 h wound area] × 100.
The wound area was calculated with the IMAGEPRO software.

[3] abbreviates: HEK293 cells expressing Gα16 and CXCR2, IL-8 stimulated calcium change, read-out: CXCR2 IC50.

Molecules are shown by their SMILES. Where two headings read alike, the source gives them in different places. Some results are limits rather than exact numbers.

Usually IC50 stands for the concentration that gives 50% inhibition. Turning to `CN(C)C(=O)c1cccc(Nc2nnc(-c3ccccc3)[nH]2)c1O` [Compound 1a, 2-hydroxy-N,N-dimethyl-3-((5-phenyl-4H-1,2,4-triazol-3-yl)amino)benzamide], the IC50 on CXCR2 (setting [3]) is 76 µM.

As for `N#Cc1ccc(Nc2nnc(-c3ccccc3)[nH]2)c(O)c1` [Compound 1b, 3-hydroxy-4-((5-phenyl-4H-1,2,4-triazol-3-yl)amino)benzonitrile], on CXCR2 (setting [3]), the IC50 came out at 18.5 µM.

Regarding `N#Cc1ccc(Nc2nnc(-c3ccccc3Br)[nH]2)c(O)c1` [Compound 1c, 4-((5-(2-bromophenyl)-4H-1,2,4-triazol-3-yl)amino)-3-hydroxybenzonitrile], on CXCR2 (setting [3]), the IC50 came out at 25.4 µM.

On to `N#Cc1ccc(Nc2nnc(-c3ccc(C(F)(F)F)cc3)[nH]2)c(O)c1` [Compound 1d, 3-hydroxy-4-((5-(4-(trifluoromethyl)phenyl)-4H-1,2,4-triazol-3-yl)amino)benzonitrile], for which the IC50 at CXCR2 (setting [3]) is greater than 100 µM.

For `CC(C)S(=O)(=O)c1c(Cl)ccc(Nc2nnc(-c3ccccc3)[nH]2)c1O` [Compound 1e, 3-chloro-2-(isopropylsulfonyl)-6-((5-phenyl-4H-1,2,4-triazol-3-yl)amino)phenol], the IC50 on CXCR2 worked out at 14.8 µM. Also, the “cytotoxicity (growth inhibition, MTT)” value with NCI-H1299 cells [1] was “no cytotoxicity”. The inhibition at 50 µg/mL in the series with NCI-H1299 cells [2] turned out to be 72%.

For `CN(C)C(=O)c1cccc(Nc2nccc(Nc3ccccc3)n2)c1O` [Compound 2, 2-hydroxy-N,N-dimethyl-3-((4-(phenylamino)pyrimidin-2-yl)amino)benzamide], on CXCR2, the “CXCR2 antagonistic activity (in words)” value is “loss of CXCR2 antagonistic activity”. The IC50 on CXCR2 (setting [3]) is greater than 100 µM.

For `CN(C)C(=O)c1cccc(Nc2nn(Cc3ccccc3)c(=O)[nH]2)c1O` [Compound 3, 3-((1-benzyl-5-oxo-4,5-dihydro-1H-1,2,4-triazol-3-yl)amino)-2-hydroxy-N,N-dimethylbenzamide], the “CXCR2 antagonistic activity (in words)” value on CXCR2 was “loss of CXCR2 antagonistic activity”. Moreover, the IC50 on CXCR2 (setting [3]) was greater than 100 µM.

The values are drawn from publication PMC6083693, “Ligand-based pharmacophore model for the discovery of novel CXCR2 antagonists as anti-cancer metastatic agents” (Royal Society Open Science, 2018).
